Measurements published in patent US7812121B2 (priority 2006, dated 2010).
“Also recorded” adds a separate entry of the source. Ends that are not written are not given here.

Columns and labels:
[1] = SEC-SLS solution molecular weight / self-association; format: physicochemical; settings: PBS (pH 7.5); for SEC-SLS elution / association state of peptides: 1 mg/ml
Description: Solution molecular weight of the peptides was measured by SEC-SLS. Briefly, peptide solutions in PBS (pH 7.5) at 0.4 to 2.0 mg/mL were fractionated over a Superdex peptide column (Amersham Pharmacia). The eluted peaks were monitored by static light scattering at 690 nm and solution molecular weight was determined at UV 280 nm using the Astra software package (Wyatt Inc.).

mutated human GLP-2R = target: T1, mutated human GLP-2R (Homo sapiens, UniProt O95838, E512D/G511A/L513V); experiment: cAMP expression assay; format: cell-based; settings: for EC50: Table 5, peptides 0.01 nM to 1.0 uM, 30-minute incubation at 37° C., read-out: cAMP in Vitro EC50 values; for less activity relative to wild type GLP-2: from cAMP EC50
T1 construct: expressed in transfected cells; host or cells: HEK 293E (clonal line, transfected)
T1 sequence (O95838 1-553 G511A/E512D/L513V): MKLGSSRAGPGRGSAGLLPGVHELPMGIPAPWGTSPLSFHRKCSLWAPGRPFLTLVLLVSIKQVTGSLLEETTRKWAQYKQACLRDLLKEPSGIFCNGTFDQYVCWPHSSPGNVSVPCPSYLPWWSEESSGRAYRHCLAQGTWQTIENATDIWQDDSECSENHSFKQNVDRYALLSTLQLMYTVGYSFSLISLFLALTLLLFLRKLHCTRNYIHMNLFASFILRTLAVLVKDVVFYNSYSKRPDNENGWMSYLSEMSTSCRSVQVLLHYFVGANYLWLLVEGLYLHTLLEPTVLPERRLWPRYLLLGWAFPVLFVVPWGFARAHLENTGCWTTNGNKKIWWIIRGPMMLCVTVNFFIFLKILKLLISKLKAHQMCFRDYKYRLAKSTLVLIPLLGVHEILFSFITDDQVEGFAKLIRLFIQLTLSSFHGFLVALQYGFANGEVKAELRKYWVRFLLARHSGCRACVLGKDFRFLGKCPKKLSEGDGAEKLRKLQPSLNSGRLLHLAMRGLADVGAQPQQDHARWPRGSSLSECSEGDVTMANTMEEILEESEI
Source text: To achieve this goal, a clonal cell line expressing a mutated human GLP-2R was generated by transfecting HEK 293E cells. The mutated human GLP-2R differs from the wild-type human GLP-2R (SEQ ID NO: 35) at three amino acid positions within the C-terminal intracellular region (SEQ ID NO: 36).
The CAMP expression was quantitated using the cAMP Direct Screen System (Cat. No. CSD 200, Applied Biosystems, Bedford, Mass.).
This assay was based on the cAMP Direct screen system from Applied Biosystems utilizing a cell line expressing mutated huGLP-2R in HEK 293E cells. Peptide at concentrations ranging from 0.01 nM to 1.0 uM in PBS with 0.5% BSA was added to ˜50,000 cells suspended in 96-well plates. After a 30-minute incubation at 37° C., Lysis Buffer followed by luminescence reagents (Applied Biosystems) was added according to the manufacturers' procedures (Applied Biosystems Luminescence protocol: cAMP-Screen Direct System). Luminescence was quantitated using a TopCount liquid scintillation analyzer (PerkinElmer), and data was processed using Softmax software (Molecular Devices Corporation).

[2] = CD spectra secondary structure; format: physicochemical; settings: 0.2 mg/mL peptide in PBS, 25° C.
Description: The secondary structures of tested peptides were determined using 0.2 mg/mL peptide solutions in PBS. Briefly, CD spectra were collected in triplicate at 1 nm intervals at 25° C. in 0.1 cm path length cell. Secondary structures were determined by fitting of the CD spectra using CD spectra software (CD Spectra Deconvolution software 2.1). All tested peptides contained peaks corresponding to the presence of alpha helices.

[3] = Pharmacokinetics in mice (TRF assay of active mimetibody); format: in vivo
Source text: Blood was collected at different time points into citrate buffer containing protease inhibitors to minimize the possibility of ex vivo degradation and plasma was separated by centrifugation.
A time resolved fluorescence (TRF) assay was used to measure active mimetibody. Active mimetibody reflects the intact N-terminus of the peptide still attached to the Fc region of the mimetibody.

mice = experiment: Pharmacodynamics, dosing regimens, 11 day study; format: in vivo
Source text: (§1) Specifically, 4 cm sections were harvested: (1) immediately distal to the pylorus (duodenum), (2) starting 2 cm distal of the ligament of Treitz (jejunum), and (3) immediately proximal to the cecum (ileum). The remaining small intestine from ˜6 cm distal of the ligament of Treitz to 4 cm proximal to the cecum was used to prepare mucosal scrapings. From the proximal and distal ends of the remnant, an equal distance was removed until a 15 cm section remained, the remnant was cut longitudinally, rinsed, and the mucosal layer was removed using the short end of a glass microscope slide. The wet weight of the intact intestinal segments and mucosa was measured.
The duration of the study was 11 days and tissue was processed as described in Example 4.

CD1 mice = experiment: Mucosal weight gain in small intestine, 10 days daily s.c. dosing; format: in vivo
Source text: Afterwards, the mice were euthanized and the small intestines were removed, flushed with saline, and processed as described below.
as §1

normal mice = experiment: Upper gastrointestinal transit, FITC-dextran method; format: in vivo; settings: 30 minute test; for upper gastrointestinal transit: single injection 4 mg/kg 4 days before, 4 mg/kg
Description: On the day of study, upper gastrointestinal transit was measured using the FITC-dextran method. This method provides both, a measure of gastrointestinal transit and a readout of the pattern of distribution of the test meal along the gastrointestinal tract. Mice were fed a test meal of […] of FITC-dextran solution (5 mg/ml of 70,000 molecular weight dextran conjugated to fluorescein-isothiocyanate in 0.5% methylcellulose/deionized water) administered intragastrically by an 18 gauge curved feeding tube. Following oral administration of the FITC-dextran test meal, mice were returned to their home cages. It was shown that a 30 min test period was the optimum duration for detecting accelerated transit, while a 45 min test period was optimum for detecting delayed transit. Following the appropriate test period, mice were sacrificed by carbon dioxide exposure. The entire gastrointestinal tract from the lower esophageal sphincter to the terminal colon was removed. The bowel segments were opened along the mesenteric border. The tissue and luminal contents of the stomach, 10 equal segments of small intestine, the cecum, and 3 equal segments of colon were placed in individual Eppendorf tubes containing 1 ml of PBS. The tissue was vigorously mixed on a table-top vortex, and solid materials were pelleted by centrifugation. Aliquots of the cleared supernatant were read in duplicate on a 96-well fluorescence plate reader to quantify the magnitude of the fluorescent signal in each segment of bowel. These values were used to calculate the Geometric Center (GC), which is defined as the weighted average distribution of the fluorescent signal along the gastrointestinal tract: GC=Σ(% of total fluorescent signal per segment×segment number)/100. Higher values represent faster rates of transit on scale of 1 to 15. […] The mimetibody-induced shift in the distribution pattern of FITC-dextran is shown in the upper panel. […] The GC is calculated in the lower panel for statistical comparison.

[4] = SEC-SLS solution molecular weight / self-association; format: physicochemical; settings: purified mimetibody
[5] = Incubation with U937 cell lysate, SDS-PAGE; format: in vitro ADME; settings: 24 hour test period, compared with A2G GLP-2 mimetibody (SEQ ID NO: 5)
Description: The purified Pro substitution variants were incubated with U937 cell lysate in the presence of CompleteMini protease inhibitor tablets (Cat. No. 1 836 153, Roche Applied Science, Indianapolis, Ind.) for 0, 12, or 24 hours. Afterwards, GLP-2 mimetibody variants were purified using Protein A beads and resolved on a SDS-PAGE gel.

In the case of `CC[C@H](C)[C@H](NC(=O)[C@H](Cc1ccccc1)NC(=O)[C@H](CC(=O)O)NC(=O)[C@H](CCCNC(=N)N)NC(=O)[C@H](C)NC(=O)[C@H](C)NC(=O)[C@H](CC(C)C)NC(=O)[C@H](CC(N)=O)NC(=O)[C@H](CC(=O)O)NC(=O)[C@H](CC(C)C)NC(=O)[C@@H](NC(=O)[C@@H](NC(=O)[C@H](CC(N)=O)NC(=O)[C@H](CCSC)NC(=O)[C@H](CCC(=O)O)NC(=O)[C@H](CC(=O)O)NC(=O)[C@H](CO)NC(=O)[C@H](Cc1ccccc1)NC(=O)[C@H](CO)NC(=O)CNC(=O)[C@H](CC(=O)O)NC(=O)[C@H](C)NC(=O)[C@@H](N)Cc1c[nH]cn1)[C@@H](C)O)[C@@H](C)CC)C(=O)N[C@@H](CC(N)=O)C(=O)N[C@@H](Cc1c[nH]c2ccccc12)C(=O)N[C@@H](CC(C)C)C(=O)N[C@H](C(=O)N[C@@H](CCC(N)=O)C(=O)N[C@H](C(=O)N[C@@H](CCCCN)C(=O)N[C@H](C(=O)N[C@H](C(=O)N[C@@H](CC(=O)O)C(=O)O)[C@@H](C)O)[C@@H](C)CC)[C@@H](C)O)[C@@H](C)CC` [SEQ ID NO: 1, GLP-2, reference compound], the association state ([1]; 0.4 mg/mL) is reported as “monomer”, the “SEC-SLS elution / association state of peptides” value [1] is reported as “overlapping dimer and monomer peaks” and the “stimulation of cAMP expression” value (mutated human GLP-2R; clonal HEK 293E line expressing mutated human GLP-2R) is reported as “stimulated cAMP expression”. It also gave a Helix [2] of 19.6% and a Random coil [2] of 37.9%.

In the case of “GLP-1 [SEQ ID NO: 79, reference compound]”, the “SEC-SLS elution / association state of peptides” value [1] is reported as “single peak with molecular weight within the expected monomer size”, the Helix [2] is reported as 16.8% and the Random coil [2] is reported as 41.9%.

For “HGDGSFSDEMNTILDGQAARDFINWLIQTKITD [SEQ ID NO: 55, GLP-2(A2G, N16G, L17Q)]”, the “SEC-SLS elution / association state of peptides” value [1] was “mainly monomeric peptide”, the EC50 (mutated human GLP-2R) was 3.5 nM and the “less activity relative to wild type GLP-2” value (mutated human GLP-2R) was 2 ×. It also gave a Random coil [2] of 41.4%, a Helix ([2]; listed as GLP-2 (A2G, N16G, L17Q)) of 17.0% and a Helix ([2]; listed as GLP-2(A2G, N16G, L17Q)) of about 17%.

With “HGDGSFSDEMNTILDNQAARDFINWLIQTKITD [SEQ ID NO: 54, GLP-2(A2G, L17Q)]” the “SEC-SLS elution / association state of peptides” value [1] was “mainly monomeric peptide”, the EC50 (mutated human GLP-2R) was 5.2 nM and the “less activity relative to wild type GLP-2” value (mutated human GLP-2R) was 3 ×. For the same molecule, the Random coil [2] was 41.8%, the Helix ([2]; listed as GLP-2 (A2G, L17Q)) was 16.9% and the Helix ([2]; listed as GLP-2(A2G, L17Q)) was about 17%.

For “SEQ ID NO: 5: A2G GLP-2 mimetibody, IgG4 Hg-CH2-CH3 with S228P and P234A/L235A”, the calculated half-life ([3]; CD1 mice, 3 mg/kg intravenously or subcutaneously, TRF active mimetibody) was 26.5 h, the “half-life higher than that of the GLP-2 peptide” value ([3]; mimetibody in mice vs GLP-2 peptide in humans) was “more than 200 fold” and the “mucosal weight difference to control mimetibody” value (mice; 4 mg/kg every day or every other day, 11 days) was “more pronounced”. The “mucosal weight compared to control mimetibody” value (mice; 4 mg/kg once per week, 11 days) was “significantly increased mucosal weight”, the “duodenum and jejunum section wet weight over control mimetibody” value (mice; 4 mg/kg, all regimens except the single dose) was “significant increase in weight” and the “increase in mucosal wet weight vs control mimetibody” value (CD1 mice; 0.8 mg/kg (0.26 nmole), p<0.0001) was “statistically significant”. For the same molecule, the “increase in mucosal wet weight vs control mimetibody” value (CD1 mice; 8 mg/kg (2.6 nmole), p<0.0004) was “statistically significant”, the “mucosal wet weight (mucosal scrapings)” value (CD1 mice; female CD1 mice, daily s.c. for 10 days, dose response) was “dose dependant increase; also recorded: dose-dependent increase” and the “effective in vivo dose lower than A2G GLP-2 peptide” value (CD1 mice; on a molar basis) was 50 fold. For the same molecule, the upper gastrointestinal transit (normal mice; listed as A2G GLP-2 mimetibody) was “significant acceleration of intestinal transit”, the upper gastrointestinal transit (normal mice; listed as GLP-2 mimetibody) was “acceleration of upper gastrointestinal transit” and the “Geometric Center (GC)” value (normal mice; single injection 4 days before, scale of 1 to 15, normal mice GC=6) was 7.5. The “SEC-SLS association state of mimetibodies” value [4] was “dimer”.

With “SEQ ID NO: 43: A2G GLP-2 mimetibody Pro substitution variant, V2 GALVAVPS (HGDGSFSDEMNTILDNLAARDFINWLIQTKITDGSGGGSGALVAVPSESKYGPPCPPCP; cysteine pairing not given here; also: part of GLP-2 mimetibody)” the “degradation / resistance to proteolysis” value [5] was “less degradation”.

With “SEQ ID NO: 44: A2G GLP-2 mimetibody Pro substitution variant, V2 GALVAVSP (HGDGSFSDEMNTILDNLAARDFINWLIQTKITDGSGGGSGALVAVSPESKYGPPCPPCP; Mimetibody)” the “degradation / resistance to proteolysis” value [5] was “less degradation”.

B1: SEQ ID NO: 4: A2S GLP-2 mimetibody, IgG4 Hg-CH2-CH3 with S228P and P234A/L235A (protein)
chain: HSDGSFSDEMNTILDNLAARDFINWLIQTKITDGSGGGSGTLVTVSSESKYGPPCPPCPAPEAAGGPSVFLFPPKPDTLMISRTPEVTCVVVDVSQEDPEVQFNWYVDGVEVHNAKTKPREEQFNSTYRVVSVLTVLHQDWLNGKEYKCKVSNKGLPSSIEKTISKAKGQPREPQVYTLPPSQEEMTKNQVSLTCLVKGFYPSDIAVEWESNGQPENNYKTTPPVLDSDGSFFLYSRLTVDKSRWQEGNVFSCSVMHEALHNHYTQKSLSLSLGK
modifications: Mimetibody
With B1 the “SEC-SLS association state of mimetibodies” value [4] was “dimer”.
